The values below come from DBAASP.

Some test systems named below: Candida albicans; Staphylococcus aureus; Escherichia coli; Acinetobacter baumannii.
What all share (test): ≥ marks a high value that may be exact or a test limit, other limits are often not marked, values filed in µg/mL are converted to µM
The subject of assay [1] is Staphylococcus aureus ATCC 25923.
Assay [2] deals with Candida albicans ATCC 10231.
The subject of assay [3] is Escherichia coli ATCC 25922.
Assay [4] has as its system Bacillus subtilis ATCC 6633.
Assay [5] relates to Candida albicans ATCC 90028.
In assay [6] the test system is Staphylococcus aureus ATCC 29213.
Assay [7] concerns Pseudomonas aeruginosa ATCC 27853.
Assay [8] relates to Staphylococcus aureus ATCC 6538.
Assay [9] has as its system Pseudomonas aeruginosa ATCC 9027.
Assay [10] has as its system Salmonella typhimurium KCTC 1926.
Assay [11] relates to Klebsiella pneumoniae ATCC 700603.
For assay [12], the system named is Enterococcus faecalis ATCC 29212.

Values after ≈ are worked out from the molar mass of the structure shown.

As for `C[C@H](NC(=O)[C@H](Cc1c[nH]c2ccccc12)NC(=O)[C@H](CCCCN)NC(=O)[C@H](Cc1ccccc1)NC(=O)[C@H](CCCN=C(N)N)NC(=O)[C@H](Cc1c[nH]c2ccccc12)NC(=O)[C@@H](N)CCCN=C(N)N)C(=O)N[C@@H](CCCCN)C(=O)N[C@@H](CCCCN)C(=O)O` [RWRFKWAKK], the MIC is above 76.6 µM in assay [1], above 76.6 µM in [2], above 76.6 µM in [3] and at least 76.6 µM in assay [4].

As for `CC[C@H](C)[C@H](NC(=O)[C@H](CCCN=C(N)N)NC(=O)[C@H](CCC(N)=O)NC(=O)[C@@H](NC(=O)[C@@H](NC(=O)[C@H](CCCN=C(N)N)NC(=O)[C@@H](N)CCCCN)[C@@H](C)CC)C(C)C)C(=O)N[C@@H](CCCCN)C(=O)N[C@@H](CC(=O)O)C(=O)N[C@@H](Cc1ccccc1)C(=O)N[C@@H](CC(C)C)C(=O)N[C@@H](C)C(=O)O` [KRIVQRIKDFLA], the minimum inhibitory concentration (MIC) in assay [5] was at least 40 µM; in assay [6], 40 µM (≈ 59.5 µg/mL); in assay [7] it was 40 µM (≈ 59.5 µg/mL); in assay [3], 40 µM (≈ 59.5 µg/mL).

`CC[C@H](C)[C@H](NC(=O)[C@H](CCCCN)NC(=O)[C@H](CS)NC(=O)[C@H](C)NC(=O)[C@@H](NC(=O)[C@H](Cc1ccccc1)NC(=O)[C@H](CCCCN)NC(=O)[C@H](CC(C)C)NC(=O)[C@H](CCCCN)NC(=O)[C@@H](NC(=O)[C@H](CCCCN)NC(=O)[C@H](CCCCN)NC(=O)[C@H](CC(C)C)NC(=O)[C@H](CC(N)=O)NC(=O)[C@H](CCCCN)NC(=O)[C@H](CC(C)C)NC(=O)[C@@H](NC(=O)[C@H](CO)NC(=O)[C@H](CC(C)C)NC(=O)[C@H](CCSC)NC(=O)[C@@H](N)CO)C(C)C)C(C)C)C(C)C)C(=O)N[C@@H](CC(N)=O)C(=O)N[C@@H](CCCCN)C(=O)N[C@@H](CCC(N)=O)C(=O)N[C@@H](CS)C(=O)O` [SMLSVLKNLKKVKLKFVACKINKQC]: the minimum inhibitory concentration (MIC) in the assay on Candida albicans was above 200 µM; with Staphylococcus aureus, above 200 µM; with Escherichia coli it was 200 µM (≈ 573 µg/mL).

As for `CC[C@H](C)[C@H](NC(=O)[C@H](CCCN=C(N)N)NC(=O)[C@H](C)NC(=O)[C@@H](NC(=O)[C@@H](NC(=O)[C@H](CCCN=C(N)N)NC(=O)[C@@H](N)CCCCN)[C@@H](C)CC)C(C)C)C(=O)N[C@@H](CCCCN)C(=O)N[C@@H](C)C(=O)N[C@@H](Cc1ccccc1)C(=O)N[C@@H](CC(C)C)C(=O)N[C@@H](CCCN=C(N)N)C(=O)O` [KRIVARIKAFLR], the MIC came to 2.5 µM (≈ 3.68 µg/mL) in [5], 2.5 µM (≈ 3.68 µg/mL) in [6], 1.25 µM (≈ 1.84 µg/mL) in assay [7] and 1.25 µM (≈ 1.84 µg/mL) in [3].

As for `CC(C)C[C@H](NC(=O)[C@H](C)NC(=O)[C@H](Cc1ccccc1)NC(=O)[C@H](CCCCN)NC(=O)[C@H](CCCCN)NC(=O)[C@H](CC(C)C)NC(=O)[C@H](C)NC(=O)[C@H](CCCCN)NC(=O)[C@H](C)NC(=O)[C@H](CC(C)C)NC(=O)[C@H](CC(C)C)NC(=O)[C@H](CCCCN)NC(=O)[C@H](C)NC(=O)[C@@H](N)Cc1ccccc1)C(N)=O` [FAKLLAKALKKFAL], the MIC came to 32 µM (≈ 50 µg/mL) in assay [8] and 16 µM (≈ 25 µg/mL) in assay [9].

With `CC(C)C[C@H](NC(=O)[C@H](C)NC(=O)[C@H](CCCCN)NC(=O)[C@H](CC(C)C)NC(=O)[C@H](C)NC(=O)[C@H](CCCCN)NC(=O)[C@H](CC(C)C)NC(=O)[C@H](CC(C)C)NC(=O)[C@H](C)NC(=O)[C@H](CCCCN)NC(=O)[C@H](CC(C)C)NC(=O)[C@H](C)NC(=O)[C@H](CCCCN)NC(=O)[C@H](C)NC(=O)[C@@H](N)Cc1ccccc1)C(N)=O` [FAKALKALLKALKAL], the MIC is 3.13 µM (≈ 5 µg/mL) in assay [8] and above 125 µM in [9].

`CC[C@H](C)[C@H](NC(=O)[C@@H](NC(=O)[C@@H](NC(=O)[C@H](CCCN=C(N)N)NC(=O)[C@@H](NC(=O)[C@@H](NC(=O)[C@H](CC(C)C)NC(=O)[C@@H]1CCCN1C(=O)[C@H](Cc1c[nH]c2ccccc12)NC(=O)[C@@H](NC(=O)[C@H](CCCN=C(N)N)NC(=O)[C@@H](N)CCCCN)C(C)C)C(C)C)[C@@H](C)CC)[C@@H](C)O)C(C)C)C(=O)N[C@@H](C)C(=O)NCC(=O)N[C@@H](Cc1ccc(O)cc1)C(=O)N[C@@H](CC(N)=O)C(=O)N[C@@H](CC(C)C)C(=O)N[C@@H](Cc1ccc(O)cc1)C(=O)N[C@@H](CCCN=C(N)N)C(=O)O` [KRVWPLVIRTVIAGYNLYR]: the MIC in [10] was at least 32 µM.

On to `CC[C@H](C)[C@H](NC(=O)[C@H](CC(C)C)NC(=O)[C@H](CCCCN)NC(=O)[C@H](CCCN=C(N)N)NC(=O)[C@H](CC(N)=O)NC(=O)[C@H](CC(C)C)NC(=O)[C@H](CCCCN)NC(=O)[C@H](Cc1c[nH]c2ccccc12)NC(=O)[C@@H](NC(=O)[C@@H](NC(=O)[C@H](CO)NC(=O)[C@H](Cc1ccccc1)NC(=O)[C@@H](N)CC(C)C)[C@@H](C)CC)[C@@H](C)CC)C(=O)N[C@@H](CCCCN)C(=O)N[C@@H](C)C(=O)O` [LFSIIWKLNRKLIKA], for which the minimum inhibitory concentration (MIC) is at least 64 µM in the assay on Acinetobacter baumannii; above 64 µM in assay [1]; above 64 µM in [11]; 64 µM (≈ 118 µg/mL) in [3]; above 64 µM in [9].

Take `CC(C)C[C@H](NC(=O)[C@H](CCCCN)NC(=O)[C@H](CC(C)C)NC(=O)[C@H](CCCCN)NC(=O)[C@H](C)NC(=O)[C@H](CC(C)C)NC(=O)[C@H](CCCCN)NC(=O)[C@H](C)NC(=O)[C@H](CC(C)C)NC(=O)[C@H](CC(C)C)NC(=O)[C@H](CCCCN)NC(=O)[C@H](C)NC(=O)[C@@H](N)Cc1ccccc1)C(N)=O` [FAKLLAKLAKLKL]: the MIC worked out at 3.43 µM (≈ 5 µg/mL) in [8] and 34.3 µM (≈ 50 µg/mL) in [9].

The compound `CC(=O)N[C@@H](CCCCN)C(=O)N[C@@H](Cc1ccc(O)cc1)C(=O)N[C@H](C(=O)NCC(=O)N[C@@H](CCCCN)C(=O)N[C@@H](CS)C(=O)N[C@@H](CCCCN)C(=O)N[C@H](C(=O)N[C@@H](CCCCN)C(=O)N[C@@H](CCCCN)C(=O)N[C@@H](CC(N)=O)C(=O)N[C@@H](CCCCN)C(=O)N[C@@H](CS)C(=O)N[C@@H](CCCCN)C(N)=O)[C@@H](C)O)[C@@H](C)O` [KYTGKCKTKKNKCK] yielded an MIC against Candida albicans of 1.3 µM (≈ 2.21 µg/mL).

For `CC[C@H](C)[C@H](NC(=O)[C@H](CCCCN)NC(=O)[C@H](CCC(N)=O)NC(=O)[C@@H](NC(=O)[C@@H](NC(=O)[C@H](CCCN=C(N)N)NC(=O)[C@@H](N)CCCCN)[C@@H](C)CC)C(C)C)C(=O)N[C@@H](CCCCN)C(=O)N[C@@H](CC(=O)O)C(=O)N[C@@H](Cc1ccccc1)C(=O)N[C@@H](CC(C)C)C(=O)N[C@@H](CCCN=C(N)N)C(=O)O` [KRIVQKIKDFLR], the MIC came to 20 µM (≈ 30.9 µg/mL) in [5], 10 µM (≈ 15.4 µg/mL) in assay [6], 10 µM (≈ 15.4 µg/mL) in [7] and 5 µM (≈ 7.72 µg/mL) in assay [3].

Regarding `CC(C)C[C@H](NC(=O)[C@H](CCCCN)NC(=O)[C@@H]1CCCN1C(=O)[C@H](CC(C)C)NC(=O)[C@H](CC(C)C)NC(=O)[C@@H]1CCCN1C(=O)[C@H](CCCCN)NC(=O)[C@H](CC(C)C)NC(=O)[C@H](CCCCN)NC(=O)[C@@H]1CCCN1C(=O)[C@H](CC(C)C)NC(=O)[C@H](CC(C)C)NC(=O)[C@H](CC(C)C)NC(=O)[C@H](CCCCN)NC(=O)[C@H](CC(C)C)NC(=O)[C@H](CC(C)C)NC(=O)[C@H](CCCCN)NC(=O)[C@@H](N)Cc1ccc(O)cc1)C(N)=O` [YKLLKLLLPKLKPLLPKL], the MIC is 23.3 µM (≈ 49.7 µg/mL) in assay [6], above 79.7 µM in [2] and 19.9 µM (≈ 42.4 µg/mL) in assay [7].

Consider `CC[C@H](C)[C@H](NC(=O)[C@H](CCCN=C(N)N)NC(=O)[C@H](CCC(N)=O)NC(=O)[C@@H](NC(=O)[C@@H](NC(=O)[C@H](CCCCN)NC(=O)[C@@H](N)CCCCN)[C@@H](C)CC)C(C)C)C(=O)N[C@@H](CCCCN)C(=O)N[C@@H](CC(=O)O)C(=O)N[C@@H](Cc1ccccc1)C(=O)N[C@@H](CC(C)C)C(=O)N[C@@H](CCCN=C(N)N)C(=O)O` [KKIVQRIKDFLR], for which the MIC came to 10 µM (≈ 15.4 µg/mL) in assay [5], 5 µM (≈ 7.72 µg/mL) in [6], 10 µM (≈ 15.4 µg/mL) in assay [7] and 5 µM (≈ 7.72 µg/mL) in assay [3].

Consider `CC(C)C[C@H](NC(=O)[C@H](CC(C)C)NC(=O)[C@H](CCCN=C(N)N)NC(=O)[C@H](CCCCN)NC(=O)[C@H](CCCN=C(N)N)NC(=O)[C@H](CC(C)C)NC(=O)[C@H](CCCCN)NC(=O)[C@H](CCCN=C(N)N)NC(=O)[C@H](CC(C)C)NC(=O)[C@H](Cc1cnc[nH]1)NC(=O)[C@H](CO)NC(=O)[C@H](C)NC(=O)[C@H](CC(C)C)NC(=O)[C@H](CCCN=C(N)N)NC(=O)[C@@H](NC(=O)[C@H](CC(C)C)NC(=O)[C@H](CCCN=C(N)N)NC(=O)[C@H](CCCCN)NC(=O)[C@H](CCCN=C(N)N)NC(=O)[C@H](CC(C)C)NC(=O)[C@H](CCCCN)NC(=O)[C@H](CCCN=C(N)N)NC(=O)[C@@H](N)CC(C)C)C(C)C)C(=O)O` [LRKLRKRLVRLASHLRKLRKRLL], for which the MIC was 5.47 µM (≈ 16 µg/mL) in assay [6]; 2.05 µM (≈ 6 µg/mL) against Acinetobacter baumannii; 2.74 µM (≈ 8 µg/mL) in [7]; 2.05 µM (≈ 6 µg/mL) in assay [3]; above 10.9 µM in assay [12].

What is called MIC is the lowest concentration that inhibits growth of the organism.
